In US8415312B2, “Compound which is a nystatin derivative” (Biosergen AS, priority 2007, dated 2013):
Values after ≈ are worked out from the molar mass of the structure shown. Values joined by “and” are separate entries in the source; they are usually repeats but may differ in a detail not shown here. Identical values can stand only once.

Key:
[1] = test system: Aspergillus niger ATCC 16404; assay: Antifungal susceptibility study (1), broth microdilution MIC; type: cell-based; settings: lowest concentration preventing any visible growth, read at 48 hours, 35° C., RPMI 1640 pH 7.0
Summary of the method: (§1)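 Broth microdilution was run at pH 7.0 with compounds diluted from DMSO solutions and mixed 1:1 with conidial inoculum. Spore suspensions were adjusted to OD530 0.09-0.11 for A. niger or 0.15-0.17 for F. oxysporum, then diluted 1:50. Plates were incubated at 35° C without agitation, and MIC was read at 48 hours as absence of visible growth.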

[2] = test system: Fusarium oxysporum VKM F-140; assay: as above; type: cell-based; settings: lowest concentration preventing any visible growth, read at 48 hours, 35° C., RPMI 1640 pH 7.0
Summary of the method: as §1

[3] = test system: Candida albicans (strain 14053 ATCC); assay: Model of the candidiasis sepsis of mice, kidney burden; type: in vivo; settings: for Candida albicans burden in kidneys (Mean): day 5, n=3 mice
Procedure: In experiments used female mice of hybrids of first generation (C57B1/6xDBA/2)F1 (B6D2F1), weight 18-20 g., received from the Central farm “Kryukovo” of Russian Academies of Medical Science (RAMS). Animals were maintained in Institute' vivarium in plastic cages (with hardwood bedding in environmentally controlled room: 24±1° C., 12/12 hours light/dark cycle) on a standard diet of bricketed forages with an easy approach to drinking water (ad libitum). After 2-week quarantine healthy animals were used in experimental work.
A preparation of comparison was amphotericin B (pure). Solutions of tested preparations prepared ex tempore by the technique specified by the customer.
Animals were housed on 3 mice and infected intravenously with culture Candida albicans in a doze 1.0 million CFU/mouse in volume of 0.1 ml. It is necessary to note, that doze Candida albicans remained a constant in all experiments. In 30 minutes after infection to mice carried out the first intravenous introduction of tested preparations in corresponding dozes in volume of 0.2 ml (with a speed of 0.2 ml/30 second).
Experiment has been planned in such a manner that in each experiment one doze (both for amphotericin B was used, and for tested preparations), each doze entered daily within four days, since day of infection (0, 1, 2 and 3 days). At each experiment there was a group untreated, infected with Candida albicans animals. Also there was a group “placebo”, intact (not infected) animals, which intravenously (in the same volume as medical preparations) injected 0.2 ml of solvent—phosphatic buffer +5% glucose (1:1).
On the post challenge 5th day of experiment, mice were weighed and euthanized (killed) by a cervical dislocation. Then, in sterile conditions, Candida albicans burdens were determined by viable counting of homogenates from the kidneys. The kidneys, which were removed aseptically and weighed, pounded in porcelain mortars with sterile corundum, did dilutions of the received suspensions and sowed on Petri dishes with agar Saburo, incubated for 48 hours at temperature 35° C., then counted up developed colonies Candida albicans and recalculated their quantity on 1 g of kidney' tissue. The first dilution was 10^−1. Zero result at this cultivation accepted for 5 CFU/g.
For the basic criterion of an assessment of the investigated preparations the maximal effect of the Amphotricin B was accepted (effective dose, ED).
For significant accepted distinctions of average at P≦0.05 at comparison by Student t-criterion.

[4] = test system: Candida albicans (strain 14053 ATCC); assay: In vivo antifungal activity, kidney burden in infected mice; settings: day 5, individual mice
Procedure: Male mice of hybrids of first generation (C57B1/6xDBA/2)F1 B6D2F1, weight 20-22 g., received from the Central farm. “Kryukovo” of Russian Academies of Medical Science (RAMS) were used. Animals were maintained in a vivarium in plastic cages (with hardwood bedding in environmentally controlled conditions: 24±1° C., 12/12 hours light/dark cycle) on a standard diet of bricketed forages with easy access to drinking water (ad libitum). After a 2-week quarantine period, healthy animals were used in experimental work.
The solutions were prepared as follows: dry antibiotic substances (5 mg) were mixed with dry sodium deoxycholate (4.1 mg) in a sterile glass vial. 10 mL of phosphate buffer (NaH2PO4—1.59 g; Na2HPO4—0.96 g; H2O—to 100 mL) was added to the mix and the suspension was immediately subjected to vigorous shaking for 10 minutes until homogeneous suspensions were formed.
Animals were infected intravenously with Candida albicans culture at a dose of 1.0 million CFU/mouse (volume 0.1 mL). 30 minutes after infection, the antifungal agents were introduced intravenously into the mice at various doses in a volume of 0.2 mL (at a rate of 0.2 mL/30 second). Each dose was administered daily for four days including the day of infection (0, 1, 2 and 3 days).
As a control, there was a group of untreated mice (infected in the same way with Candida albicans). Also there was a “placebo” group of non-infected animals which were intravenously administered (in the same volume as antifungal agent preparations) 0.2 mL of solvent (phosphatic buffer +5% glucose (1:1)).
On the 5th day of experiment, mice were weighed and euthanized (killed) by a cervical dislocation. Then, in sterile conditions, the Candida albicans burden of each mouse was determined by counting of viable homogenates from the kidneys. The kidneys were removed aseptically and weighed, then pounded in porcelain mortars with sterile corundum. Dilutions of the resulting suspensions were prepared and sowed on Petri dishes with agar Saburo, incubated for 24 hours at a temperature of 35° C. Developed colonies of Candida albicans were then counted and their quantity calculated on the basis of 1 g of kidney tissue.

[5] = dose 0.08 mg/kg/d i.v. for four days
[6] = dose 0.31 mg/kg/d i.v. for four days
[7] = dose 0.62 mg/kg/d i.v. for four days
[8] = dose 1.25 mg/kg/d i.v. for four days
[9] = dose 2.5 mg/kg/d i.v. for four days
[10] = dose 0.16 mg/kg/d i.v. for four days
[11] = 0.08 mg/kg × 4/24 i.v., colonies per 1 g of kidney tissue
[12] = 0.8 mg/kg × 4/24 i.v., colonies per 1 g of kidney tissue
[13] = 2.5 mg/kg × 4/24 i.v., colonies per 1 g of kidney tissue
[14] = 5 mg/kg × 4/24 i.v., Candida albicans colonies per 1 g of kidney tissue

`CC1O[C@@H](O[C@H]2/C=C/C=C/C=C/C=C/C=C/C=C/C=C/[C@H](C)[C@@H](O)[C@@H](C)[C@H](C)OC(=O)C[C@H](O)C[C@H](O)C[C@H](O)CC[C@@H](O)[C@H](O)C[C@]3(O)C[C@H](O)[C@@H](C)[C@H](C2)O3)[C@H](O)C(NC(=O)[C@@H](N)CCCCN)[C@@H]1O` (stereo partly drawn) [Compound 51, N-L-Lysyl-Compound 1] was tested, and the “MIC Aspergillus niger ATCC 16404” value [1] was 1 µg/mL (≈ 0.978 µM), the “MIC Fusarium oxysporum VKM F-140” value [2] was 2 µg/mL (≈ 1.96 µM) and the “Candida albicans burden in kidneys (Mean)” value (“Candida albicans burden” for short) [3, 5] was 56667 CFU/g. The “Candida albicans burden” value [3, 6] was 22667 CFU/g, the “Candida albicans burden” value [3, 7] was 17833 CFU/g and the “Candida albicans burden” value [3, 8] was 9400 CFU/g. The “Candida albicans burden” value [3, 9] was 5 CFU/g.
For `C[C@@H]1[C@H](O)[C@@H](C)/C=C/C=C/C=C/C=C/C=C/C=C/C=C/[C@H](O[C@@H]2O[C@H](C)[C@@H](O)[C@H](N)[C@@H]2O)C[C@@H]2O[C@](O)(C[C@@H](O)C[C@@H](O)[C@H](O)CC[C@@H](O)C[C@@H](O)CC(=O)O[C@H]1C)C[C@H](O)[C@H]2C(=O)O` [Amphotericin B, reference compound], the “MIC Aspergillus niger ATCC 16404” value [1] was 1 µg/mL (≈ 1.08 µM), the “MIC Fusarium oxysporum VKM F-140” value [2] was 4 µg/mL (≈ 4.33 µM) and the “Number of Colonies” value ([4]; 0.08 mg/kg × 4/24 i.v., colonies per 1 g of kidney tissue, listed as Amp B) was 1.8 × 10^4 and 2.6 × 10^4 and 3.4 × 10^4. The “Number of Colonies” value ([4]; 0.8 mg/kg × 4/24 i.v., colonies per 1 g of kidney tissue, listed as Amp B) was 2 × 10^3 and 6 × 10^3 and 4 × 10^3, the “Number of Colonies” value ([4]; 2.5 mg/kg × 4/24 i.v., colonies per 1 g of kidney tissue, listed as Amp B) was 1.0 × 10^3 and 2.2 × 10^2 and 2.8 × 10^2 and the “dose of maximal activity as % from MTD” value ([3]; 1.25 mg/kg/d) was “≈ 62%”. For the same molecule, the “Candida albicans burden” value [3, 5] was 105000 CFU/g, the “Candida albicans burden” value [3, 10] was 85667 CFU/g and the “Candida albicans burden” value [3, 6] was 34667 CFU/g. The “Candida albicans burden” value [3, 7] was 10667 CFU/g, the “Candida albicans burden” value [3, 8] was 1667 CFU/g and the “dose of maximal activity (effective dose, ED)” value ([3]; highest studied dose, criterion of activity) was 1.25 mg/kg/day.
For `CC1C=CC=CC=CC=CC=CC=CC=CC(OC2OC(C)C(O)C(N)C2O)CC2OC(O)(CC(O)C(O)CCC(O)CC(O)CC(O)CC(=O)OC(C)C(C)C1O)CC(O)C2C(=O)NCCCN(C)C` (stereo not drawn) [Compound 11, S44HP DMAP Amide], the “MIC Aspergillus niger ATCC 16404” value [1] was 2 µg/mL (≈ 1.98 µM), the “MIC Fusarium oxysporum VKM F-140” value [2] was 2 µg/mL (≈ 1.98 µM) and the “Number of Colonies” value [4, 11] was 3.0 × 10^4 and 2.7 × 10^4 and 1.5 × 10^4. The “Number of Colonies” value [4, 12] was 1.2 × 10^3 and 3.0 × 10^3 and 2.5 × 10^3, the “Number of Colonies” value [4, 13] was <10^1 and 1.0 × 10^1 (2×) and the “Number of Colonies” value [4, 14] was 0 (2×) and <10^1.
For `CC1C=CC=CC=CC=CC=CC=CC=CC(OC2OC(C)C(O)C(N)C2O)CC2OC(O)(CC(O)C(O)CCC(O)CC(O)CC(O)CC(=O)OC(C)C(C)C1O)CC(O)C2C.NC(CCC(=O)O)C(=O)O` [Compound 29, Compound 1 L-glutamate], the “MIC Aspergillus niger ATCC 16404” value [1] was 2 µg/mL, the “MIC Fusarium oxysporum VKM F-140” value [2] was 2 µg/mL and the “Candida albicans burden” value [3, 10] was 102667 CFU/g. For the same molecule, the “Candida albicans burden” value [3, 7] was 12500 CFU/g, the “Candida albicans burden” value [3, 8] was 2557 CFU/g and the “Candida albicans burden” value [3, 9] was 133 CFU/g. For the same molecule, the “Candida albicans burden” value ([3]; dose 5 mg/kg/d i.v. for four days, zero result accepted for 5 CFU/g) was 5 CFU/g.
With `CC1C=CC=CC=CC=CC=CC=CC=CC(OC2OC(C)C(O)C(N)C2O)CC2OC(O)(CC(O)C(O)CCC(O)CC(O)CC(O)CC(=O)OC(C)C(C)C1O)CC(O)C2C` (stereo not drawn) [Compound 1] the “MIC Aspergillus niger ATCC 16404” value [1] was 1 µg/mL and 2 µg/mL, the “MIC Aspergillus niger ATCC 16404” value ([1]; listed as Comp 1) was 2 µg/mL (≈ 2.24 µM) and the “MIC Fusarium oxysporum VKM F-140” value [2] was 2 µg/mL (≈ 2.24 µM). The “Number of Colonies” value [4, 11] was 2.4 × 10^4 (2×) and 2.8 × 10^4, the “Number of Colonies” value [4, 12] was 2.5 × 10^3 and 1.2 × 10^3 and 5.0 × 10^3 and the “Number of Colonies” value [4, 13] was 2.0 × 10^1 (2×) and 1.0 × 10^1. The “Number of Colonies” value [4, 14] was 1.0 × 10^1 (2×) and 0.
